Assay [1] has as its system 1014 cells. As to the kind of experiment: 1014 cell growth for 7 days monitored by IncuCyte. The format is cell-based, mouse. As to conditions: in vitro.
In assay [2] the test system is SK-MEL-30 xenografts. As to the kind of experiment: SK-MEL-30 xenograft model in Nu/J mice. The format is in vivo, mouse. As to conditions: trametinib chow and/or GSK2334470 100 mg/kg intraperitoneally every 3 days. Here is the method:
FIG. 4A-4B, In Nu/J mice, SK-MEL-30 tumor growth (FIG. 4A) represented as the change in volume (mm^3) over time and Kaplan-Meier survival curves (FIG. 4B) were shown from the start of treatment as indicated. Ctrl: control chow+mock injection (n=7), Tram: trametinib chow+mock injection (n=7), G4470: control chow+GSK2334470 injection (n=5), Comb: trametinib chow+GSK2334470 injection (n=7). Mice were injected and tumor volume was monitored every 3 days. Data are represented as the mean±SEM. The dotted line at 1000 mm^3 marks the experimental endpoint. p values were calculated by GraphPad Prism 9.0 with Log-rank (Mantel-Cox) test. n.s., not significant. […]
FIGS. 14A-14B: Sex disparities in SK-MEL-30 xenografts, in accordance with some embodiments. […] Mice were injected and tumor volume was monitored every 3 days. […] The dotted line at 1000 mm^3 marks the experimental endpoint. p values were calculated by GraphPad Prism 9.0 with Log-rank (Mantel-Cox) test. n.s., not significant.
Animal experiments were performed at Thomas Jefferson University in a facility accredited by the Association for the Assessment and Accreditation of Laboratory Animal Care and were approved by the Institutional Animal Care and Use Committee (protocol #1052). […] Mouse weights were monitored once a week or three times per week during drug treatment. […]

In assay [3] the test system is human NRAS mutant melanoma cell lines. As to the kind of experiment: 72 hours drug combination, cell density by IncuCyte, synergy by Combenefit with Loewe method. The format is cell-based. The note with it: WM1361A, WM1366, SK-MEL-30 and SK-MEL-173, 72 hours.
Description: FIG. 2A: NRAS mutant melanoma cell line WM1361A, WM1366, SK-MEL-30, SK-MEL-173, 1007 and 1014 were treated for 72 hours as indicated with GSK2334470 and trametinib and analyzed for cell density by IncuCyte. Synergy graphs were generated utilizing Combenefit Software with Loewe method. Data are represented as the mean from three biological independent experiments. FIG. 2B: WM1361A, WM1366, SK-MEL-30 or SK-MEL-173 cells were treated with GSK2334470 (PDPK1i) and trametinib (tram) alone or in combination (comb) at the indicated concentrations for 7 days. Cell growth was monitored by IncuCyte every 2 hours. Media were replaced twice with drugs during culture. Data are represented as the mean±SEM of three biological independent experiments. p values were calculated with an unpaired two-tailed t test. n.s., not significant.
FIG. 10A-10B: Cas9 expressed clone WM1361A-iCas9 #1 (FIG. 10A), and WM1366-iCas9 #11 (FIG. 10B) cells were treated for 72 hours as indicated with GSK2334470 and trametinib and analyzed for cell density by IncuCyte. Synergy graphs were generated utilizing Combenefit Software with Loewe method. Data are represented as the mean from three biological independent experiments.
FIG. 11A: WM1361A, WM1366, SK-MEL-30 and SK-MEL-173 cells were treated for 72 hours as indicated with GSK2334470 and PD0325901 and analyzed for cell density by IncuCyte. Synergy graphs were generated utilizing Combenefit Software with Loewe method. Data are represented as the mean from three biological independent experiments. FIG. 11B: WM1361A, WM1366, SK-MEL-30 or SK-MEL-173 cells were treated with GSK2334470 (PDPK1i) and PD0325901 (PD901) alone or in combination (Comb) at the indicated concentrations for 7 days. Cell growth was monitored by IncuCyte every 2 hours. Data are represented as the mean±SEM of three biological independent experiments. p values were calculated with an unpaired two-tailed t test. n.s., not significant.
FIG. 16A: WM1361A and WM1366 cells were treated for 72 hours with indicated inhibitors and analyzed for cell density by IncuCyte. Synergy graphs were generated utilizing Combenefit Software with Loewe method. Data are represented as the mean from three biological independent experiments.
To further analyze synergistic effects, the growth response of a panel of several NRAS mutant cells to titrated PDPK1i (GSK2334470) and MEKi (trametinib) combinations was assessed.
Human WM1361A and WM1366 melanoma cell lines were cultured in MCDB153 (Sigma) with 2% FBS, 20% Leibowitz L-15 medium, and 5 μg/mL insulin (WM medium). Human SK-MEL-30 and SK-MEL-173 melanoma cell lines were cultured in RPMI-1640 with 10% FBS. […] All cells were cultured at 37° C. in a humidified atmosphere containing 5% CO2. […] Cell lines were STR analyzed, confirmed for NRAS/Nras mutation, and tested to be mycoplasma-free during experiments. For cell proliferation and drug response, cells were monitored by IncuCyte® (Essen Bioscience, Ann Arbor, MI) every 2 hours.
In assay [4] the test system is WM1361A and WM1366 cells. As to the kind of experiment: Reverse-phase protein array and immunoblot analysis. As to conditions: immunoblot, 24 hours. The class given is cell-based, human. Here is the method: FIG. 15A: Reverse-phase protein array analysis of WM1361A and WM1366 cells. The cells were treated with vehicle (DMSO), either pharmacologic inhibition or genetic depletion of PDPK1 only, MEK inhibitor only and the combinations as indicated. All samples were harvested in three biological independent experiments. Proteins levels were normalized to the mean. Antibodies were limited to those that were differentially expressed (BHFDR <0.05) in at least three of the four comparisons between combination and control samples. FIG. 15B: WM1361A and WM1366 cells were treated with PD0325901 and GSK2334470 as indicated for 24 hours. Cell lysates were applied to immunoblot with indicated antibodies. FIG. 15C: WM1361A and WM1366 parental clones (iCas9) and PDPK1-depleted clones by two individual sgRNAs (KO1 and K02) treated with trametinib as indicated for 24 hours. Cell lysates were applied to immunoblot with indicated antibodies.
WM1361A and WM1366 cells were treated with vehicle control, PDPK1i (GSK2334470), MEKi (trametinib) or combined PDPK1i and MEKi for 48 hours. WM1361A and WM1366 cells were also transfected with ON-target control siRNAs or PDPK1 siRNAs, and then treated with or without trametinib for further 48 hours. Cells were harvested, lysed and analyzed as described in Tibes et al. (Mol Cancer Ther 5, 2512-2521, 2006). […]
In general terms: In western blotting, separated proteins are transferred to a membrane and probed.

As to `CC(=O)Nc1cccc(-n2c(=O)n(C3CC3)c(=O)c3c(Nc4ccc(I)cc4F)n(C)c(=O)c(C)c32)c1` [trametinib, N-(3-(3-cyclopropyl-5-((2-fluoro-4-iodophenyl)amino)-6,8-dimethyl-2,4,7-trioxo-3,4,6,7-tetrahydropyrido[4,3-d]pyrimidin-1(2H)-yl)phenyl)acetamide], in assay [1], the 1014 cell proliferation result is “suppressed”. For the same compound, the tumor growth result in assay [2] is “suppressed tumor growth modestly”.
With `O=C(NOC[C@H](O)CO)c1ccc(F)c(F)c1Nc1ccc(I)cc1F` [PD0325901, (R)—N-(2,3-dihydroxypropoxy)-3,4-difluoro-2-((2-fluoro-4-iodophenyl)amino)benzamide], in assay [3], the “synergistic inhibition of PDPK1i (GSK2334470) with PD0325901” value is given as “broad synergistic effects”. Moreover, in assay [4], the “p-S6, second MEKi with PDPK1i or sgRNA PDPK1 depletion” value is given as “enhanced reduction”.

Source of the values: patent publication US20240382484A1, “COMPOSITION FOR TREATING, PREVENTING, OR AMELIORATING MELANOMA AND METHOD THEREOF” (Thomas Jefferson University, priority 2021, published 2024).
